Here are results for two molecules from US20250090498A1, “TREATMENT OF PRIMARY CTLA-4 CHECKPOINT RELATED IMMUNODEFICIENCIES” (ADIENNE PHARMA & BIOTECH SA, priority 2023, published 2025).

The target of series [1] is T1, AhR (Homo sapiens, UniProt P35869).
T1 sequence (P35869 11-848): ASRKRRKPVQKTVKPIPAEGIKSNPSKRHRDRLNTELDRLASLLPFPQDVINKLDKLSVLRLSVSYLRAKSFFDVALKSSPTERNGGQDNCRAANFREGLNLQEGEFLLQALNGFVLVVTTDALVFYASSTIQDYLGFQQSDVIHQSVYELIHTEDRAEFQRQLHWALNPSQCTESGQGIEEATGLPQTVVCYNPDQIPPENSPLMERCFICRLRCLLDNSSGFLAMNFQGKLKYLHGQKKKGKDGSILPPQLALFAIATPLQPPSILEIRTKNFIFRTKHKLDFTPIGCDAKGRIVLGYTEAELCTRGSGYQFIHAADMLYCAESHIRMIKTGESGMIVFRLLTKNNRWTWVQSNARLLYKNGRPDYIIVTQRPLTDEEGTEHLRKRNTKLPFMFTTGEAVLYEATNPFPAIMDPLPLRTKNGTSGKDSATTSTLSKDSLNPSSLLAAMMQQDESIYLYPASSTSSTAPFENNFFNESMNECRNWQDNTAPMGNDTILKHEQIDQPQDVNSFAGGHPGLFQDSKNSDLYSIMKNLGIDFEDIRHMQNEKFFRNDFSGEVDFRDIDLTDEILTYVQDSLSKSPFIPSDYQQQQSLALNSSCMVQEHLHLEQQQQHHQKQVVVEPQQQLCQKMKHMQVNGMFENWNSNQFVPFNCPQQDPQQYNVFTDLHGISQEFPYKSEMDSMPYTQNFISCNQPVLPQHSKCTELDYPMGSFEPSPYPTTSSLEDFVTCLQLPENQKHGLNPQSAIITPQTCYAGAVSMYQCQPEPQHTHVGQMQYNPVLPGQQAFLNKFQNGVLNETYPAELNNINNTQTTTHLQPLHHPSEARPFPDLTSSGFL
Put plainly: AhR-dependent genes in vitro in cell lines (data not shown). Format: cell-based. Also noted: host or cells: unnamed cell lines. The note with it: preliminary. As to the method:
Specifically, the oxidated form of 3-IAld (indole-3-formic acid), and methylated forms of indole-3-formic acid, were detected following administration of labelled 3-IAld. For example, 1-Methylindole-3-carboxylic acid was detected with the same kinetics of indole-3-formic acid, with peak levels at 30 min (FIGS. 13C and 13D). Few studies have been performed assessing the biological activities of methylindoles and methoxyindoles as aryl hydrocarbon receptor (AhR) activators.

Series [2] deals with pathology after chronic treatment with anti-CTLA-4 monoclonal antibody. Put plainly: chronic anti-CTLA-4 treatment in 16 wk-old Il10−/− mice, without DSS. The format is in vivo. From the text: Animals were monitored daily for body weight, disease activity index, clinical inspection, inflammatory pathology in the ileum and colon, epithelial barrier function and immunological parameters of inflammation. […] Consistent with the extensive T cells infiltration in different organs observed in CTLA-4 haploinsufficiency (Kuehn et al, 2014; Schubert et al, 2014; […] No lymphocytic infiltration or immunopathology were detected in organs, such as the spleens and kidneys (data not shown).

Series [3] concerns AhR. The note with it: cited from earlier work.
For another series, the system named is B16 tumor cells. Put plainly: anti-CTLA-4-responsive B16 melanoma model. The format is in vivo, C57BL/6 mice. As to the method:
For FIGS. 12A-12E, C57BL/6 mice were subcutaneously injected with B16 tumor cells and administered 100 μg anti-CTLA-4 mAb or isotype control intraperitoneally four times at 3-day intervals up to 16 days. 3-IAld was administered intragastrically every other day. Mice were evaluated for (FIG. 12A) tumor growth, (FIG. 12B) histology (periodic acid-Schiff staining), (FIG. 12C) immunohistochemistry for CD8+ and CD4+ tumor-infiltrating lymphocytes (TIL), (FIG. 12D) number of positive TIL per high-power field, HPF and (FIG. 12E) Cxcl9 and Perforin expression. (FIGS. 12F-12J) C57BL/6 mice were orthotopically injected with LLC cells and administered 200 μg anti-PD-1 mAb or isotype control intraperitoneally five times at 3-day intervals up to 18 days. 3-IAld was administered intragastrically every other day. Mice were evaluated for (FIG. 12F) % survival, (FIG. 12G) lung weight, (FIG. 12H) lung gross pathology, (FIGS. 12I, 12J) CD4+CD25+Foxp3+ cells. Photographs were taken with a high-resolution microscope, ×40 magnification (scale bars, 100 μm). Each in vivo experiment includes three mice per group (nine mice in each experiment). […]
The potential application of 3-IAld requires that its immunoregulatory activity would not impinge the tumor immunosurveillance. To this purpose, the effect of 3-IAld was assessed in the anti-CTLA-4-responsive B16 melanoma model (Renga et al, 2022).

Series [4] deals with disease progression in IL-10-deficient mice. Put plainly: disease progression in 16 wk-old IL-10-deficient mice, 3-IAld for 4 weeks then 1% DSS. Format: in vivo, Il10−/− mice. As to conditions: 3-IAld every other day for 4 weeks. As for the experimental part:
Sixteen week-old IL-10-deficient mice (Il10^−/−) were treated with 3-IAld every other day for 4 weeks, as illustrated in FIG. 10A. As a mimic of disease exacerbation, mice received 1% DSS after 3-IAld treatment and subsequently evaluated for weight change, intestinal pathology and epithelial integrity.

Another series relates to immune-mediated colitis. Put plainly: immune-mediated colitis in Rag1−/− mice infused with CD4+ T cells and treated with anti-CTLA-4 mAb. Format: in vivo. As for the experimental part:
Immunodeficient Rag1^−/− mice reconstituted with naïve CD4^+ T cells and treated with anti-CTLA-4 monoclonal antibody. Rag1−/− mice, mice homozygous for the RagltmlMom mutation produce no mature T cells or B cells. Their phenotype can be described as a “non-leaky” immune deficiency. Rag1−/− 8-10 weeks old mice were injected intraperitoneally with 4×10^5 naïve CD4^+ T cells purified from spleens of C57BL/6 mice and treated with anti-CTLA-4 mAb or control IgG the day after T-cell reconstitution and then at days 0, 4, 8, 12, and 16. […] Mice were monitored daily for overall mortality and body weight loss and sacrificed on day 21.

Series [5] in a line: toxicology, 3 weeks, H&E tissue pathology in naive C57BL/6 and AhR−/− mice. Format: in vivo. As to conditions: Eudragit-formulated, intragastrically every other day for 3 weeks, two concentrations. The source says: Eudragit-formulated 3-IAld (Puccetti et al, 2018) was given intragastrically every other day, at the doses indicated for 3 weeks to naive C57BL/6 and AhR−/− mice. At the end of treatment, mice were sacrificed, and tissue pathology blindly examined on different organs after Hematoxylin and Eosin (H&E) staining.

Series [6] has as its system colitis, gastrointestinal and vaginal candidiasis. The note with it: mouse, in vivo; cited from earlier work.

“Also recorded” adds a separate entry of the source. Where two headings read alike, the source gives them in different places.

On to `Cn1cc(C(=O)O)c2ccccc21` [1-methylindole-3-carboxylic acid, 1-Methyl-1H-indole-3-carboxylic acid], for which, on AhR [1], the “activation of AhR-dependent genes” value is recorded as “activated AhR-dependent genes in a dose-dependent manner”.
In the case of `O=Cc1c[nH]c2ccccc12` [3-IAld, 1H-indole-3-carbaldehyde], the “cytotoxic effects / pathology induced by CTLA-4 blockade (overall)” value in series [2] (3-IAld, chronic schedule) is listed as “effective; also recorded: protects”. Besides, the “CD3+ T cell (lymphocytic) infiltration” value in series [2] (ileum, colon, lung and liver, anti-CD3 staining) is on record as “significantly reduced; also recorded: reduces lymphocytic infiltration”. For the same molecule, in the series with AhR [3] (as printed in b215), the “dose range inducing luciferase activity” value is 0.1 to 100 mM. For the same molecule, in the series with AhR [3] (as printed in b238), the “dose range inducing luciferase activity” value is 0.0001 to 0.1 mM. For the same molecule, the “recruitment of CD4+ and CD8+ tumour-infiltrating lymphocytes” value with B16 tumor cells (3-IAld with anti-CTLA-4 mAb) was “did not affect”. Besides, in the series on B16 tumor cells (B16 and LLC models), the “development of antitumor immunity / tumor immunosurveillance (overall)” value is given as “does not interfere”. Also, in series [4], the colon inflammatory histopathology result is reported as “slow down”, the “disease progression (overall)” value is reported as “slows disease progression” and the “loss of body weight” value is “slow down”. Further, the “epithelial integrity and renewal” value in series [4] (PAS and Ki-67) is reported as “maintain”. In the series on immune-mediated colitis (3-IAld 18 mg/kg), the “progression of immune-mediated colitis (overall)” value is on record as “limits progression”. For the same molecule, in the series on immune-mediated colitis (3-IAld 18 mg/kg intragastrically every other day, 21 days), the weight loss result is listed as “reduced”. For the same molecule, in the series with immune-mediated colitis (3-IAld 18 mg/kg, day 21), the colon histopathology result is recorded as “improved” and the gross pathology entry is on record as “improved”. For the same molecule, the “tissue pathology in different organs (H&E)” value in series [5] is “absence of visible tissue pathology”. In addition, in series [6], the “barrier integrity and production of antimicrobial peptides” value is “enhanced”.
